These are literature values, as cited in patent US20040202731A1, “Rosmarinic acid composition” (priority 2003, published 2004).

For one series, the system named is rat liver microsomes. To be noted: concentration of 25 μg/ml.
Another series concerns human PMNL. The settings on record: concentrations of 10^-5 to 10^-3 M.
For series [1] the following is noted: in vivo.

For the molecule `O=C(/C=C/c1ccc(O)c(O)c1)O[C@H](Cc1ccc(O)c(O)c1)C(=O)O` [Rosmarinic acid], in the series on rat liver microsomes, the “inhibition of lipid peroxidation of rat liver microsomes” value is 90%. Further, in the series on human PMNL, the “formation of 5-HETE from human PMNL” value was “inhibited” and the “formation of LTB4 from human PMNL” value is listed as “inhibited”. Also, the “absorption from the gastrointestinal tract and from the skin” value in series [1] is “well absorbed”. Moreover, the “endotoxin-induced activation of complement and concomitant formation of prostacyclin” value in the series on complement is “suppresses”.

Regarding `CC1(C)C2CCC1(C)C(O)C2` (stereo not drawn) [Borneol, endo-1,7,7-trimethyl-bicyclo[2.2.1]heptan-2-ol], the “stability (turns to camphor with oxidation)” value is listed as “highly unstable”.
